In the NIST ThermoML archive (doi:10.1016/j.jct.2006.08.009):
± gives the expanded uncertainty stated by the source.

Assay: mn = molality of the nth substance listed, in mol/kg
Conditions: 350 kPa, Liquid; for apparent molar heat capacity: Extra sensitive DSC

OC[C@@H](O)[C@H](O)[C@@H](O)CO [xylitol] + O
Conditions	apparent molar heat capacity [J/K/mol]	mass density [kg/m3]
278.15 K, m1 = 0.0499	278.9 ± 21	1002.96 ± 0.18
278.15 K, m1 = 0.1	288.4 ± 12	1005.41 ± 0.18
278.15 K, m1 = 0.4001	293.3 ± 6.1	1020.49 ± 0.21
278.15 K, m1 = 0.7496	297.2 ± 5.2	1036.91 ± 0.24
278.15 K, m1 = 1.001	299.5 ± 5	1047.83 ± 0.27
278.15 K, m1 = 1.498	303.4 ± 4.5	1067.95 ± 0.31
278.15 K, m1 = 1.997	301.8 ± 4.3	1086.45 ± 0.35
278.15 K, m1 = 2.701	311.1 ± 4.1	1109.42 ± 0.4
283.15 K, m1 = 0.0499	296.8 ± 21	1002.63 ± 0.18
283.15 K, m1 = 0.1	306.1 ± 12	1005.03 ± 0.18
283.15 K, m1 = 0.4001	310.2 ± 5.6	1019.9 ± 0.21
283.15 K, m1 = 0.7496	313.4 ± 4.7	1036.06 ± 0.24
283.15 K, m1 = 1.001	315.6 ± 4.4	1046.82 ± 0.26
283.15 K, m1 = 1.498	318.5 ± 4	1066.63 ± 0.31
283.15 K, m1 = 1.997	317.4 ± 3.7	1084.9 ± 0.34
283.15 K, m1 = 2.701	325 ± 3.5	1107.65 ± 0.39
288.15 K, m1 = 0.0499	310.8 ± 21	1001.96 ± 0.17
288.15 K, m1 = 0.1	319.8 ± 12	1004.34 ± 0.18
288.15 K, m1 = 0.4001	323.4 ± 5.4	1019.04 ± 0.21
288.15 K, m1 = 0.7496	326.2 ± 4.5	1035 ± 0.24
288.15 K, m1 = 1.001	328.1 ± 4.2	1045.65 ± 0.26
288.15 K, m1 = 1.498	330.3 ± 3.8	1065.25 ± 0.3
288.15 K, m1 = 1.997	328.7 ± 3.6	1083.35 ± 0.34
288.15 K, m1 = 2.701	335.7 ± 3.3	1105.88 ± 0.39
293.15 K, m1 = 0.0499	322.5 ± 21	–
293.15 K, m1 = 0.1	331.4 ± 12	–
293.15 K, m1 = 0.4001	334.8 ± 5.2	–
293.15 K, m1 = 0.7496	337.1 ± 4.3	–
293.15 K, m1 = 1.001	338.8 ± 4.1	–
293.15 K, m1 = 1.498	340.5 ± 3.8	–
293.15 K, m1 = 1.997	338.3 ± 3.6	–
293.15 K, m1 = 2.701	344.9 ± 3.2	–
298.15 K, m1 = 0.0499	332.9 ± 22	999.86 ± 0.17
298.15 K, m1 = 0.1	341.6 ± 12	1002.2 ± 0.17
298.15 K, m1 = 0.4001	344.5 ± 5.1	1016.61 ± 0.2
298.15 K, m1 = 0.7496	346.5 ± 4.3	1032.27 ± 0.24
298.15 K, m1 = 1.001	347.8 ± 4.1	1042.69 ± 0.26
298.15 K, m1 = 1.498	349.2 ± 3.6	1061.92 ± 0.3
298.15 K, m1 = 1.997	346.7 ± 3.4	1079.8 ± 0.33
298.15 K, m1 = 2.701	352.9 ± 3.2	1101.9 ± 0.38
303.15 K, m1 = 0.0499	342 ± 22	–
303.15 K, m1 = 0.1	350.4 ± 12	–
303.15 K, m1 = 0.4001	352.9 ± 5.1	–
303.15 K, m1 = 0.7496	354.6 ± 4.2	–
303.15 K, m1 = 1.001	355.8 ± 3.9	–
303.15 K, m1 = 1.498	356.9 ± 3.6	–
303.15 K, m1 = 1.997	354 ± 3.4	–
303.15 K, m1 = 2.701	359.9 ± 3	–
308.15 K, m1 = 0.0499	349.7 ± 22	996.7 ± 0.2
308.15 K, m1 = 0.1	358.1 ± 12	999 ± 0.2
308.15 K, m1 = 0.4001	360.4 ± 5.1	1013.2 ± 0.2
308.15 K, m1 = 0.7496	361.7 ± 4.2	1028.7 ± 0.2
308.15 K, m1 = 1.001	362.8 ± 3.9	1038.8 ± 0.3
308.15 K, m1 = 1.498	363.6 ± 3.4	1057.9 ± 0.3
308.15 K, m1 = 1.997	360.6 ± 3.2	1075.2 ± 0.3
308.15 K, m1 = 2.701	366.2 ± 3	1097.2 ± 0.4
313.15 K, m1 = 0.0499	356.5 ± 23	–
313.15 K, m1 = 0.1	365 ± 12	–
313.15 K, m1 = 0.4001	367 ± 5.1	–
313.15 K, m1 = 0.7496	368.1 ± 4.2	–
313.15 K, m1 = 1.001	369.1 ± 3.7	–
313.15 K, m1 = 1.498	369.7 ± 3.4	–
313.15 K, m1 = 1.997	366.6 ± 3.2	–
313.15 K, m1 = 2.701	371.9 ± 3	–
318.15 K, m1 = 0.0499	362.5 ± 23	992.82 ± 0.19
318.15 K, m1 = 0.1	370.9 ± 12	995.17 ± 0.18
318.15 K, m1 = 0.4001	372.9 ± 4.9	1009.11 ± 0.19
318.15 K, m1 = 0.7496	373.8 ± 4	1024.37 ± 0.22
318.15 K, m1 = 1.001	374.7 ± 3.7	–
318.15 K, m1 = 1.498	375.2 ± 3.4	–
318.15 K, m1 = 1.997	372 ± 3.2	–
318.15 K, m1 = 2.701	377.1 ± 3	–
